Measurements taken from US20210403465A1, “QUINAZOLINYL-INDAZOLE DERIVATIVES AND THEIR USE AS INHIBITORS OF HUMAN IMMUNODEFICIENCY VIRUS REPLICATION” (ViiV HEALTHCARE UK (NO.5) LIMITED, priority 2018, published 2021).

Tests used:
[1] = tested on: recombinant NL4-3 virus (Renilla luciferase) in MT-2 cells; assay: HIV cell culture assay (antiviral activity, luciferase readout in MT-2 cells); format: cell-based; details: NL43
Description: HIV cell culture assay—MT-2 cells, 293T cells and the proviral DNA clone of NL4-3 virus were obtained from the NIH AIDS Research and Reference Reagent Program. MT-2 cells were propagated in RPMI 1640 media supplemented with 10% heat inactivated fetal bovine serum (FBS), […]. The 293T cells were propagated in DMEM media supplemented with 10% heat inactivated FBS, […]. A recombinant NL4-3 proviral clone, in which a section of the nef gene was replaced with the Renilla luciferase gene, was used to make the reference virus used in these studies. The recombinant virus was prepared through transfection of the recombinant NL4-3 proviral clone into 293T cells using Transit-293 Transfection Reagent from Mirus Bio LLC (Madison, Wis.). Supernatant was harvested after 2-3 days and the amount of virus present was titered in MT-2 cells using luciferase enzyme activity as a marker by measuring luciferase enzyme activity. Luciferase was quantitated using the EnduRen Live Cell Substrate from Promega (Madison, Wis.). Antiviral activities of compounds toward the recombinant virus were quantified by measuring luciferase activity in MT-2 cells infected for 4-5 days with the recombinant virus in the presence of serial dilutions of the compound.
The 50% effective concentration (EC50) was calculated by using the exponential form of the median effect equation where (Fa)=1/[1+(ED50/drug conc.)m] (Johnson V A, Byington R T. Infectivity Assay. In Techniques in HIV Research. ed. Aldovini A, Walker B D. 71-76. New York: Stockton Press. 1990). The 50% inhibitory concentration (EC50) was calculated by using the exponential form of the median effect equation where percent inhibition=1/[1+(EC50/drug concentration)m], where m is a parameter that reflects the slope of the concentration-response curve.

[2] = Compound cytotoxicity, XTT-based colorimetric assay; format: cell-based; details: human; uninfected MT2 cells, day 4, XTT
Description: Compound cytotoxicity and the corresponding CC50 values were determined using the same protocol as described in the antiviral assay except that uninfected cells were used. Cytotoxicity was assessed on day 4 in uninfected MT2 cells by using a XTT (2,3-bis[2-Methoxy-4-nitro-5-sulfophenyl]-2H-tetrazolium-5-carboxyanilide inner salt)-based colorimetric assay (Sigma-Aldrich, St Louis, Mo.).

Cn1nc(NS(C)(=O)=O)c2c(Cl)ccc(-n3c([C@H](Cc4cc(F)cc(F)c4)NC(=O)Cn4nc(C(F)F)c5c4C(F)(F)[C@@H]4C[C@H]54)nc4cc(OCC5CCC5)ccc4c3=O)c21 (atropisomer, axis not shown; (P)) [Example 12, N—((S)-1-((3P)-3-(4-chloro-1-methyl-3-(methylsulfonamido)-1H-indazol-7-yl)-7-(cyclobutylmethoxy)-4-oxo-3,4-dihydroquinazolin-2-yl)-2-(3,5-difluorophenyl)ethyl)-2-((3bS,4aR)-3-(difluoromethyl)-5,5-difluoro-3b,4,4a,5-tetrahydro-1H-cyclopropa[3,4]cyclopenta[1,2-c]pyrazol-1-yl)acetamide]
EC50 [1]: 0.15 nM
CC50 at 4 days [2]: > 1000 nM

Cn1nc(NS(C)(=O)=O)c2c(Cl)ccc(-n3c([C@H](Cc4cc(F)cc(F)c4)NC(=O)Cn4nc(C(F)F)c5c4C(F)(F)[C@@H]4C[C@H]54)nc4cc(OCCOC(F)F)ccc4c3=O)c21 (atropisomer, axis not shown; (P)) [Example 15, N—((S)-1-((3P)-3-(4-chloro-1-methyl-3-(methylsulfonamido)-1H-indazol-7-yl)-7-(2-(difluoromethoxy)ethoxy)-4-oxo-3,4-dihydroquinazolin-2-yl)-2-(3,5-difluorophenyl)ethyl)-2-((3bS,4aR)-3-(difluoromethyl)-5,5-difluoro-3b,4,4a,5-tetrahydro-1H-cyclopropa[3,4]cyclopenta[1,2-c]pyrazol-1-yl)acetamide]
EC50 [1]: 0.051 nM
CC50 at 4 days [2]: > 500 nM

Cn1nc(NS(C)(=O)=O)c2c(Cl)ccc(-n3c([C@H](Cc4cc(F)cc(F)c4)NC(=O)Cn4nc(C(F)F)c5c4C(F)(F)[C@@H]4C[C@H]54)nc4cc(OCCC(C)(C)C)ccc4c3=O)c21 (atropisomer, axis not shown; (P)) [Example 6, N—((S)-1-((3P)-3-(4-chloro-1-methyl-3-(methylsulfonamido)-1H-indazol-7-yl)-7-(3,3-dimethylbutoxy)-4-oxo-3,4-dihydroquinazolin-2-yl)-2-(3,5-difluorophenyl)ethyl)-2-((3bS,4aR)-3-(difluoromethyl)-5,5-difluoro-3b,4,4a,5-tetrahydro-1H-cyclopropa[3,4]cyclopenta[1,2-c]pyrazol-1-yl)acetamide]
EC50 [1]: 0.18 nM
CC50 at 4 days [2]: > 1000 nM

Cn1nc(NS(C)(=O)=O)c2c(Cl)ccc(-n3c([C@H](Cc4cc(F)cc(F)c4)NC(=O)Cn4nc(C(F)F)c5c4C(F)(F)[C@@H]4C[C@H]54)nc4cc(OC5CCOCC5)ccc4c3=O)c21 (atropisomer, axis not shown; (P)) [Example 10, N—((S)-1-((3P)-3-(4-chloro-1-methyl-3-(methylsulfonamido)-1H-indazol-7-yl)-4-oxo-7-((tetrahydro-2H-pyran-4-yl)oxy)-3,4-dihydroquinazolin-2-yl)-2-(3,5-difluorophenyl)ethyl)-2-((3bS,4aR)-3-(difluoromethyl)-5,5-difluoro-3b,4,4a,5-tetrahydro-1H-cyclopropa[3,4]cyclopenta[1,2-c]pyrazol-1-yl)acetamide]
EC50 [1]: 0.036 nM
CC50 at 4 days [2]: > 1000 nM

Cn1nc(NS(C)(=O)=O)c2c(Cl)ccc(-n3c([C@H](Cc4cc(F)cc(F)c4)NC(=O)Cn4nc(C(F)F)c5c4C(F)(F)[C@@H]4C[C@H]54)nc4cc(OCCC(C)(C)C(F)(F)F)ccc4c3=O)c21 (atropisomer, axis not shown; (P)) [Example 14, N—((S)-1-((3P)-3-(4-chloro-1-methyl-3-(methylsulfonamido)-1H-indazol-7-yl)-4-oxo-7-(4,4,4-trifluoro-3,3-dimethylbutoxy)-3,4-dihydroquinazolin-2-yl)-2-(3,5-difluorophenyl)ethyl)-2-((3bS,4aR)-3-(difluoromethyl)-5,5-difluoro-3b,4,4a,5-tetrahydro-1H-cyclopropa[3,4]cyclopenta[1,2-c]pyrazol-1-yl)acetamide]
EC50 [1]: 0.23 nM
CC50 at 4 days [2]: > 500 nM

Cn1nc(NS(C)(=O)=O)c2c(Cl)ccc(-n3c([C@H](Cc4cc(F)cc(F)c4)NC(=O)Cn4nc(C(F)F)c5c4C(F)(F)[C@@H]4C[C@H]54)nc4cc(OCC5CCCCC5)ccc4c3=O)c21 (atropisomer, axis not shown; (P)) [Example 3, N—((S)-1-((3P)-3-(4-chloro-1-methyl-3-(methylsulfonamido)-1H-indazol-7-yl)-7-(cyclohexylmethoxy)-4-oxo-3,4-dihydroquinazolin-2-yl)-2-(3,5-difluorophenyl)ethyl)-2-((3bS,4aR)-3-(difluoromethyl)-5,5-difluoro-3b,4,4a,5-tetrahydro-1H-cyclopropa[3,4]cyclopenta[1,2-c]pyrazol-1-yl)acetamide]
EC50 [1]: 0.47 nM
CC50 at 4 days [2]: > 1000 nM

Cn1nc(NS(C)(=O)=O)c2c(Cl)ccc(-n3c([C@H](Cc4cc(F)cc(F)c4)NC(=O)Cn4nc(C(F)F)c5c4C(F)(F)[C@@H]4C[C@H]54)nc4cc(OCc5cncnc5)ccc4c3=O)c21 (atropisomer, axis not shown; (P)) [Example 11, N—((S)-1-((3P)-3-(4-chloro-1-methyl-3-(methylsulfonamido)-1H-indazol-7-yl)-4-oxo-7-(pyrimidin-5-ylmethoxy)-3,4-dihydroquinazolin-2-yl)-2-(3,5-difluorophenyl)ethyl)-2-((3bS,4aR)-3-(difluoromethyl)-5,5-difluoro-3b,4,4a,5-tetrahydro-1H-cyclopropa[3,4]cyclopenta[1,2-c]pyrazol-1-yl)acetamide]
EC50 [1]: 0.066 nM
CC50 at 4 days [2]: > 1000 nM

Cn1nc(NS(C)(=O)=O)c2c(Cl)ccc(-n3c([C@H](Cc4cc(F)cc(F)c4)NC(=O)Cn4nc(C(F)F)c5c4C(F)(F)[C@@H]4C[C@H]54)nc4cc(OCCOc5ccccc5)ccc4c3=O)c21 (atropisomer, axis not shown; (P)) [Example 5, N—((S)-1-((3P)-3-(4-chloro-1-methyl-3-(methylsulfonamido)-1H-indazol-7-yl)-4-oxo-7-(2-phenoxyethoxy)-3,4-dihydroquinazolin-2-yl)-2-(3,5-difluorophenyl)ethyl)-2-((3bS,4aR)-3-(difluoromethyl)-5,5-difluoro-3b,4,4a,5-tetrahydro-1H-cyclopropa[3,4]cyclopenta[1,2-c]pyrazol-1-yl)acetamide]
EC50 [1]: 0.36 nM
CC50 at 4 days [2]: > 1000 nM

Cn1nc(NS(C)(=O)=O)c2c(Cl)ccc(-n3c([C@H](Cc4cc(F)cc(F)c4)NC(=O)Cn4nc(C(F)F)c5c4C(F)(F)[C@@H]4C[C@H]54)nc4cc(OCCn5cccn5)ccc4c3=O)c21 (atropisomer, axis not shown; (P)) [Example 13, N—((S)-1-(7-(2-(1H-pyrazol-1-yl)ethoxy)-(3P)-3-(4-chloro-1-methyl-3-(methylsulfonamido)-1H-indazol-7-yl)-4-oxo-3,4-dihydroquinazolin-2-yl)-2-(3,5-difluorophenyl)ethyl)-2-((3bS,4aR)-3-(difluoromethyl)-5,5-difluoro-3b,4,4a,5-tetrahydro-1H-cyclopropa[3,4]cyclopenta[1,2-c]pyrazol-1-yl)acetamide]
EC50 [1]: 0.032 nM
CC50 at 4 days [2]: > 1000 nM
